Data reported in patent publication US12441762B2, “Hepatitis c virus NS3/4A protease inhibitors” (priority 2019, dated 2025).

Experiments:
Test in all cases: biochemical
[1] = test system: HCV NS3/4A protease D168A variant; type: biochemical, Hepatitis C virus; settings: for Fold Change of D168A Ki with respect to GT1a wild-type: Table S1, value in parentheses
Procedure, shortened: (§1)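 Inhibitors pre-incubated 1 h at room temperature with 2 nM NS3/4A protease (GT1a C159S or D168A) in 50 mM Tris, 5% glycerol, 10 mM DTT, 0.6 mM LDAO, 4% DMSO, pH 7.5. Km from global Michaelis-Menten fit of inner-filter-corrected initial velocities; three independent data sets per inhibitor and construct.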

[2] = biological target: T1, HCV NS3/4A protease D168A variant (Hepatitis C virus genotype 1a, UniProt P27958, C1185S/D1194A); type: biochemical
T1 construct: His-tag (cleaved yes); made in house; host or cells: Escherichia coli BL21(DE3), PET28a vector
Procedure, shortened: as §1

[3] = biological target: T2, wild-type HCV NS3/4A protease (GT1a) (Hepatitis C virus genotype 1a, UniProt P27958, C1185S); type: biochemical
T2 construct: His-tag (cleaved yes); made in house; host or cells: Escherichia coli BL21(DE3), PET28a vector
Procedure, shortened: as §1

[4] = biological target: HCV NS3/4A protease GT3 (Hepatitis C virus genotype 3a, UniProt Q81495)
Sequence of HCV NS3/4A protease GT3 (Q81495 1033-1214): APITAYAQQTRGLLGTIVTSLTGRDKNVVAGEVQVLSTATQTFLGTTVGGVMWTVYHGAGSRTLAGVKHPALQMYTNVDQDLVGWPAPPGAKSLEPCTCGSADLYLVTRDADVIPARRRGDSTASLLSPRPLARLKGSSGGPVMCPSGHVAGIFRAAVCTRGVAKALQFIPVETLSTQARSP
Sequence of HCV NS3/4A protease GT3 (Q81495 1664-1717): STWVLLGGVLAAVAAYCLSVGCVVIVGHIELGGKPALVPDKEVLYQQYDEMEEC

T1 sequence (P27958 1027-1208 C1185S/D1194A): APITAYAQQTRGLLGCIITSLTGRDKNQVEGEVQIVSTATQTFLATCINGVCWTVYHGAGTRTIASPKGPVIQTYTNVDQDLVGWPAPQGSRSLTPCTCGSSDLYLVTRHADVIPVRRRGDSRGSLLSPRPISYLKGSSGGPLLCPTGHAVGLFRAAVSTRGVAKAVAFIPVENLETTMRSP
T2 sequence (P27958 1027-1208 C1185S): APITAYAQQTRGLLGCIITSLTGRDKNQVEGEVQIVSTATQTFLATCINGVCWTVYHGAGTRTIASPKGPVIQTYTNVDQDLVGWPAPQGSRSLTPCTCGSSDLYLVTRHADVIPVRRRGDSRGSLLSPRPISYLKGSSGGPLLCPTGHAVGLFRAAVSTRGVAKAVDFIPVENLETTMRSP

COC(=O)NC1(C(=O)N[C@H]2CCCCC/C=C\[C@@H]3C[C@@]3(C(=O)NS(=O)(=O)C3(C)CC3)NC(=O)[C@@H]3C[C@@H](Oc4nc5cc(OC)ccc5nc4C)CN3C2=O)CCCC1 [Inhibitor P4P5-5, Methyl (1-(((2R,6S,13aS,14aR,16aS,Z)-2-((7-methoxy-3-methylquinoxalin-2-yl)oxy)-14a-(((1-methylcyclopropyl)sulfonyl)carbamoyl)-5,16-dioxo-1,2,3,5,6,7,8,9,10,11,13a,14,14a,15,16,16a-hexadecahydrocyclopropa[e]pyrrolo[1,2-a][1,4]diazacyclopentadecin-6-yl)carbamoyl)cyclopentyl)carbamate]
fold loss in potency against D168A relative to WT [1]: 30 fold | Fold Change of D168A Ki with respect to GT1a wild-type [1]: (30) fold | Ki [2]: 931 ± 70 nM | Ki [3]: 31 ± 2.74 nM

COC(=O)N[C@H](C(=O)N[C@H]1CCCCC/C=C\[C@@H]2C[C@@]2(C(=O)NS(=O)(=O)C2(C)CC2)NC(=O)[C@@H]2C[C@@H](Oc3nc4cc(OC)ccc4nc3C)CN2C1=O)C1CCCCC1 [Inhibitor P4P5-6, Methyl ((S)-1-cyclohexyl-2-(((2R,6S,13aS,14aR,16aS,Z)-2-((7-methoxy-3-methylquinoxalin-2-yl)oxy)-14a-(((1-methylcyclopropyl)sulfonyl)carbamoyl)-5,16-dioxo-1,2,3,5,6,7,8,9,10,11,13a,14,14a,15,16,16a-hexadecahydrocyclopropa[e]pyrrolo[1,2-a][1,4]diazacyclopentadecin-6-yl)amino)-2-oxoethyl)carbamate]
Fold Change of D168A Ki with respect to GT1a wild-type [1]: (11) fold | Ki [2]: 9.68 ± 0.64 nM | fold more potent than grazoprevir towards D168A ([2]; compared to grazoprevir): 5 fold | Ki [3]: 0.91 ± 0.38 nM

CCC1(OC(=O)N[C@H]2CCCCC/C=C\[C@@H]3C[C@@]3(C(=O)NS(=O)(=O)C3(C)CC3)NC(=O)[C@@H]3C[C@@H](Oc4nc5cc(OC)ccc5nc4C)CN3C2=O)CCCC1 [NR01-97, 1-Ethylcyclopentyl ((2R,6S,13aS,14aR,16aS, Z)-2-((7-methoxy-3-methylquinoxalin-2-yl)oxy)-14a-(((1-methylcyclopropyl)sulfonyl)carbamoyl)-5,16-dioxo-1,2,3,5,6,7,8,9,10,11,13a,14,14a,15,16,16a-hexadecahydrocyclopropa[e]pyrrolo[1,2-a][1,4]diazacyclopentadecin-6-yl) carbamate]
Fold Change of D168A Ki with respect to GT1a wild-type [1]: (17) fold | Ki [2]: 21.7 ± 2.3 nM | fold increase in potency against D168A compared to the parent compound [2]: ~3 fold | Ki [3]: 1.29 ± 0.05 nM

COc1ccc2nc(C(F)(F)F)c(O[C@@H]3C[C@H]4C(=O)N[C@]5(C(=O)NS(=O)(=O)C6(C)CC6)C[C@H]5/C=C\CCCCC[C@H](NC(=O)O[C@@H](C)C(C)C)C(=O)N4C3)nc2c1 [NR01-101, (S)-3-Methylbutan-2-yl ((2R,6S,13aS,14aR,16aS,Z)-2-((7-methoxy-3-(trifluoromethyl)quinoxalin-2-yl)oxy)-14a-(((1-methylcyclopropyl)sulfonyl)carbamoyl)-5,16-dioxo-1,2,3,5,6,7,8,9,10,11,13a,14,14a,15,16,16a-hexadecahydrocyclopropa [e]pyrrolo[1,2-a][1,4]diazacyclopentadecin-6-yl)carbamate]
Ki [2]: 26.2 ± 2.3 nM | Ki [3]: 6.1 ± 0.57 nM | Ki [4]: 447 ± 25 nM

COc1ccc2nc(C)c(O[C@@H]3C[C@H]4C(=O)N[C@]5(C(=O)NS(=O)(=O)C6(C)CC6)C[C@H]5/C=C\CCCCC[C@H](NC(=O)O[C@H](C)C(F)(F)F)C(=O)N4C3)nc2c1 [NR01-145, (R)-1,1,1-Trifluoropropan-2-yl ((2R,6S,13aS,14aR,16aS,Z)-2-((7-methoxy-3-methylquinoxalin-2-yl)oxy)-14a-(((1-methylcyclopropyl)sulfonyl)carbamoyl)-5,16-dioxo-1,2,3,5,6,7,8,9,10,11,13a,14,14a,15,16,16a-hexadecahydrocyclopropa[e]pyrrolo[1,2-a][1,4]diazacyclopentadecin-6-yl)carbamate]
Ki [2]: 8 ± 1 nM | Ki [3]: 1.1 ± 0.1 nM | Ki [4]: 122 ± 11 nM

COc1ccc2nc(C)c(O[C@@H]3C[C@H]4C(=O)N[C@]5(C(=O)NS(=O)(=O)C6(C)CC6)C[C@H]5/C=C\CCCCC[C@H](NC(=O)O[C@@H]5CCC[C@H]5F)C(=O)N4C3)nc2c1 [NR02-08, (1R,2R)-2-Fluorocyclopentyl ((2R,6S,13aS,14aR,16aS,Z)-2-((7-methoxy-3-methylquinoxalin-2-yl)oxy)-14a-(((1-methylcyclopropyl)sulfonyl)carbamoyl)-5,16-dioxo-1,2,3,5,6,7,8,9,10,11,13a,14,14a,15,16,16a-hexadecahydrocyclopropa[e]pyrrolo [1,2-a][1,4]diazacyclopentadecin-6-yl)carbamate]
Ki [2]: 16 ± 1 nM | Ki [3]: 2.3 ± 0.2 nM | Ki [4]: 216 ± 32 nM

COc1ccc2nc(C(F)(F)F)c(O[C@@H]3C[C@H]4C(=O)N[C@]5(C(=O)NS(=O)(=O)C6(C)CC6)C[C@H]5/C=C\CCCCC[C@H](NC(=O)OC5(C)CCCC5)C(=O)N4C3)nc2c1 [NR02-15, 1-Methylcyclopentyl ((2R,6S,13aS,14aR,16aS,Z)-2-((7-methoxy-3-(trifluoromethyl)quinoxalin-2-yl)oxy)-14a-(((1-methylcyclopropyl)sulfonyl)carbamoyl)-5,16-dioxo-1,2,3,5,6,7,8,9,10,11,13a,14,14a,15,16,16a-hexadecahydrocyclopropa[e]pyrrolo[1,2-a][1,4]diazacyclopentadecin-6-yl)carbamate]
Ki [2]: 11.8 ± 1.8 nM | Ki [3]: 0.9 ± 0.1 nM | Ki [4]: 161 ± 13 nM

COc1ccc2nc(C)c(O[C@@H]3C[C@H]4C(=O)N[C@]5(C(=O)NS(=O)(=O)C6(C)CC6)C[C@H]5/C=C\CCCCC[C@H](NC(=O)OC5(C)CC5)C(=O)N4C3)nc2c1 [NR02-24, 1-Methylcyclopropyl ((2R,6S,13aS,14aR,16aS,Z)-2-((7-methoxy-3-methylquinoxalin-2-yl)oxy)-14a-(((1-methylcyclopropyl)sulfonyl)carbamoyl)-5,16-dioxo-1,2,3,5,6,7,8,9,10,11,13a,14,14a,15,16,16a-hexadecahydrocyclopropa[e]pyrrolo [1,2-a][1,4]diazacyclopentadecin-6-yl)carbamate]
Fold Change of D168A Ki with respect to GT1a wild-type [1]: (6) fold | Ki [2]: 27.9 ± 4.1 nM | fold increase in potency against D168A compared to the parent compound [2]: ~2 fold | Ki [3]: 4.44 ± 0.3 nM

COc1ccc2nc(C(F)(F)F)c(O[C@@H]3C[C@H]4C(=O)N[C@]5(C(=O)NS(=O)(=O)C6(C)CC6)C[C@H]5/C=C\CCCCC[C@H](NC(=O)O[C@@H](C)C(F)(F)F)C(=O)N4C3)nc2c1 [NR02-32, (S)-1,1,1-Trifluoropropan-2-yl ((2R,6S,13aS,14aR,16aS,Z)-2-((7-methoxy-3-(trifluoromethyl)quinoxalin-2-yl)oxy)-14a-(((1-methylcyclopropyl)sulfonyl)carbamoyl)-5,16-dioxo-1,2,3,5,6,7,8,9,10,11,13a,14,14a,15,16,16a-hexadecahydrocyclopropa[e]pyrrolo[1,2-a][1,4]diazacyclopentadecin-6-yl)carbamate]
Ki [2]: 44.6 ± 7.3 nM | Ki [3]: 7.69 ± 0.89 nM | Ki [4]: 580 ± 50 nM

COc1ccc2nc(C(F)(F)F)c(O[C@@H]3C[C@H]4C(=O)N[C@]5(C(=O)NS(=O)(=O)C6(C)CC6)C[C@H]5/C=C\CCCCC[C@H](NC(=O)O[C@@H](C)C5CC5)C(=O)N4C3)nc2c1 [NR02-33, (S)-1-Cyclopropylethyl ((2R,6S,13aS,14aR,16aS,Z)-2-((7-methoxy-3-(trifluoromethyl)quinoxalin-2-yl)oxy)-14a-(((1-methylcyclopropyl)sulfonyl)carbamoyl)-5,16-dioxo-1,2,3,5,6,7,8,9,10,11,13a,14,14a,15,16,16a-hexadecahydrocyclopropa[e]pyrrolo[1,2-a][1,4]diazacyclopentadecin-6-yl)carbamate]
Ki [2]: 54.4 ± 3.7 nM | Ki [3]: 10.4 ± 0.94 nM | Ki [4]: 412 ± 21 nM

COc1ccc2nc(C)c(O[C@@H]3C[C@H]4C(=O)N[C@]5(C(=O)NS(=O)(=O)C6(C)CC6)C[C@H]5/C=C\CCCCC[C@H](NC(=O)OC5(C)CCC5)C(=O)N4C3)nc2c1 [NR02-61, 1-Methylcyclobutyl ((2R,6S,13aS,14aR,16aS,Z)-2-((7-methoxy-3-methylquinoxalin-2-yl)oxy)-14a-(((1-methylcyclopropyl)sulfonyl)carbamoyl)-5,16-dioxo-1,2,3,5,6,7,8,9,10,11,13a,14,14a,15,16,16a-hexadecahydrocyclopropa[e]pyrrolo [1,2-a][1,4]diazacyclopentadecin-6-yl)carbamate]
Fold Change of D168A Ki with respect to GT1a wild-type [1]: (33) fold | Ki [2]: 46.4 ± 3.4 nM | Ki [3]: 1.4 ± 0.13 nM | fold increase in potency towards WT compared to the parent compound ([3]; compared to parent compound): 4 fold

COc1ccc2nc(C(F)(F)F)c(O[C@@H]3C[C@H]4C(=O)N[C@]5(C(=O)NS(=O)(=O)C6(C)CC6)C[C@H]5/C=C\CCCCC[C@H](NC(=O)O[C@@H]5C[C@@H]6C[C@@H]6C5)C(=O)N4C3)nc2c1 [NR04-49, (1R,3R,5S)-Bicyclo[3.1.0]hexan-3-yl ((2R,6S,13aS,14aR,16aS,Z)-2-((7-methoxy-3-(trifluoromethyl)quinoxalin-2-yl)oxy)-14a-(((1-methylcyclopropyl)sulfonyl)carbamoyl)-5,16-dioxo-1,2,3,5,6,7,8,9,10,11,13a,14,14a,15,16,16a-hexadecahydrocyclopropa[e]pyrrolo[1,2-a][1,4]diazacyclopentadecin-6-yl)carbamate]
Ki [4]: 170 ± 13 nM
